Measured values from patent US6362170B1, “Benzylglycosylamides as inhibitors of smooth muscle cell proliferation” (American Home Products Corporation, priority 1998, dated 2002).

Test system: Porcine Smooth Muscle Cell
Assay: Effects of compounds on cell proliferation using 3H thymidine incorporation
Assay type: cell-based
Details: serum/growth factor stimulated cells; for IC50: 24-36 h incubation, read-out: Porcine Smooth Muscle Cell Antiproliferation IC50
Experimental: Effects of Compounds on Cell Proliferation Using ^3H Thymidine Incorporation
Human and porcine smooth muscle cells were tested in early passage (generally passage 3-7) at sub-confluent conditions. Cultures were grown in 16 mm (24 well) multi-well culture dishes in medium 199 supplemented with 10% fetal bovine serum and 2% antibiotic/antimycotic. At sub-confluence, the cells were placed in a defined serum free medium (AIM-V; Gibco) for 24-48 h prior to initiating the experimental protocol.
Compounds were added to each well at 50 fold dilution (20 μL/well) and the plates were incubated for 24-36 h at 37° C. in 5% CO2. Compounds were initially dissolved in 50% ethanol and serially diluted into media. Compounds were routinely evaluated at concentrations from 1 to 100 μM. As a control, grade II porcine intestinal mucosal heparin (sodium salt) was routinely evaluated in all cell preparations at concentrations from 0.1 to 100 μg/mL.
At the completion of the test procedure, plates were placed on ice, washed three times with ice cold phosphate buffered saline (PBS) and incubated in ice cold 10% trichloroacetic acid (TCA) got 30 min to remove acid soluble proteins. Solution was transferred to scintillation vials containing 0.4 N HCl (500 μL/vial to neutralize NaOH) and each well was rinsed two times with water (500 μL) for a total volume of 2 mL/vial.
Data was obtained, in triplicate, for both control and experimental samples. Control (100%) data was obtained from maximally stimulated cells, as the result of growth factor or serum stimulation. Experimental data was obtained from cells maximally stimulated with growth factor or serum and treated with compound. Data are provided below in Table 1 as an IC50.

Row | Structure (SMILES) | IC50 [µM] | Porcine Smooth Muscle Cell Antiproliferation (% at 50 μM)
1 | CC(=O)OCC1OC(NC(=O)c2ccc(F)c(Cl)c2)C(OC(C)=O)C(OC(C)=O)C1OC1OC(COC(C)=O)C(OC(C)=O)C(OC(C)=O)C1OC(C)=O [Example 5, N-(hepta-O-acetyl-β-D-cellobiosyl)-3-chloro-4-fluoro-benzamide] | 11.7 | 
2 | O=C(NC1OC(CO)C(OC2OC3COC(c4ccccc4)OC3C(O)C2O)C(O)C1O)c1ccc(F)cc1Cl [Example 6, N-(4′,6′-O-benzylidene-β-D-cellobiosyl)-2-chloro-4-flouro-benzamide] |  | 5
3 | COc1ccc(C(=O)NC2OC(COC(C)=O)C(OC3OC(COC(C)=O)C(OC(C)=O)C(OC(C)=O)C3OC(C)=O)C(OC(C)=O)C2OC(C)=O)c(OC)n1 (centres unmarked) [Example 4] | 3.11 | 
4 | O=C(NC1OC(CO)C(OC2OC3COC(c4ccccc4)OC3C(O)C2O)C(O)C1O)c1ccc(Cl)nc1 [Example 2, N-(4′,6′-O-benzylidene-β-D-cellobiosyl)-6-chloro-nicotinamide] |  | 40
5 | CC(=O)OCC1OC(NC(=O)c2ccc(Cl)nc2)C(OC(C)=O)C(OC(C)=O)C1OC1OC(COC(C)=O)C(OC(C)=O)C(OC(C)=O)C1OC(C)=O [Example 1, 6-Chloro-N-(Hepta-O-acetyl-β-D-cellobiosyl)-3-pyridinecarboxamide] | 3.55 | 
